“Also recorded” adds a separate entry of the source.
Key:
sil1-1D mutant [1] = test: Germination efficiency under paclobutrazol treatment, sil1-1D mutant; type: in vivo, Arabidopsis thaliana; conditions: FIG. 10
Description: (§1) It is generally known that GA is involved in germination as well as hypocotyl growth as shown in Example 5. Hypocotyl growth or adult heights are associated with cell elongation. Typically, GA, auxin and brassinosteroid […] are involved in cell elongation while plant hormones such as GA and ABA are responsible for germination. As for the response to GA, its molecular mechanisms are different for different phenomena. Thus, in order to support the fact that the delayed flowering and/or dwarfism phenotype is attributed to the deficient response of sil1-1D to GA, the wild-type (Col) and sil1-1D were treated with paclobutrazol (PAC), which inhibits the biosynthesis of GA, and their germination efficiencies were compared. […] Generally, when GA biosynthesis was inhibited by PAC, germination efficiency was lowered, with a lowered response to GA.

[2] = system: Arabidopsis thaliana wild-type (Col); test: Germination efficiency under paclobutrazol treatment, wild-type; type: in vivo; conditions: FIG. 10
Description: as §1

[3] = system: Arabidopsis thaliana wild-type (Col); test: Hypocotyl length response to GA, wild-type; type: in vivo; conditions: various concentrations of GA, white light, FIG. 9
Description: (§2) In most cases, these phenomena occur when the plant becomes low in GA response or GA biosynthesis level. Thus, the response of sil1-1D to GA was examined. In this regard, hypocotyl lengths of 15 plantlets were measured after they were grown in ½ Gamborg B5 media (Duchefa) containing 1% sucrose and various concentrations of GA under white light.

sil1-1D mutant [4] = test: Hypocotyl length response to GA, sil1-1D mutant; type: in vivo, Arabidopsis thaliana; conditions: various concentrations of GA, white light, compared to wild-type, FIG. 9
Description: as §2

| Molecule | germination (sil1-1D mutant [1]; 0.35 mg/L PAC) | germination efficiency (sil1-1D mutant [1]; increasing PAC concentration) | germination ([2]; wild-type (Col), 0.35 mg/L PAC) [%] | germination efficiency ([2]; wild-type, increasing PAC concentration) | hypocotyl growth [3] | hypocotyl growth (sil1-1D mutant [4]) |
| --- | --- | --- | --- | --- | --- | --- |
| CC(C)(C)[C@@H](O)[C@@H](Cc1ccc(Cl)cc1)n1cncn1 (racemic) [PAC, paclobutrazol] | about 50% | decreased with increasing of PAC concentration | ~100 | decreased with increasing of PAC concentration |  |  |
| gibberellin [GA] |  |  |  |  | increased with increasing of GA concentration | short hypocotyls in response to GA; also recorded: significantly reduced |
